The values that follow come from patent US20140011755A1, “Cardiac Glycosides for Treating Autoimmune Disease” (Department of Veterans Affairs, priority 2010, published 2014).

In data set [1] the test system is collagen-induced arthritis (CIA) joints. It counts as in vivo, DBA1/J mice. The note with it: cross-sectioned ankle joints, CIA prevention groups. On the procedure: FIG. 7. Cardiac glycosides reduce joint pathology in the CIA mouse model for rheumatoid arthritis. Blinded scoring was performed on histologic sections of joints harvested from mice at the end of a CIA prevention study (A-C). Joints derived from three representative mice belonging to each prevention group (A-C) were decalcified, fixed and stained with tolidine blue, followed by scoring by an examiner blinded to treatment status for the severity of synovitis (inflammation), pannus (growth of the synovial lining), and erosions of bone. (D-G) Joints derived from three representative mice belonging to each prevention group were decalcified, fixed, and stained with hematoxylin and eosin. Cross-sectioned ankle joints from vehicle (D), digitoxin (E), ouabain (F) and proscillaridin (G) treated mice are presented. Error bars represent SEM, and asterisks indicate P-values less than 0.05 by Mann-Whitney test.
In treatment studies, mice were randomly enrolled in treatment groups and treatment commenced when the average clinical score was at or above 2. […] Daily dosing commenced upon enrollment at the abovementioned concentrations. […] Double-blinded histopathology scoring was conducted of cross-sectioned joints taken from cardiac glycoside and vehicle recipients. […] The results obtained from these animal studies indicate that cardiac glycosides are effective at reducing the clinical manifestations of disease and reducing joint pathology in mice with collagen arthritis.
The effects of the different cardiac glycoside treatments on CIA pathology was analyzed by histological scoring. Inflammatory cell infiltrate, synovial hyperplasia, pannus formation and articular cartilage and bone deterioration were evaluated in sectioned paws of treated mice at specific time-points throughout the disease course. […] The ELISA was developed and read using BD ELISA development kit. […]

The subject of the next data set is TNF, IL-6 and IL-1beta. In words: Serum cytokine ELISA in CIA treatment groups. The note with it: serum from 3 mice per treatment group, ELISA in triplicate. It counts as in vivo. The source says: FIG. 9. Serum cytokine levels are similar between vehicle and cardiac glycoside treatment groups. […] The unpaired student t-test was used to assess significance.
In the next data set the test system is phospho-STAT3 (Y705). Briefly: STAT3 phosphorylation in cells from CIA mice (flow cytometry, Western blot). Type of data set: cell-based. To be noted: splenic B cells from CIA mice, 33 nM, 30 minutes / 0-60 minutes. Here is the method:
FIG. 15. […] Flow cytometry was performed using the FACSAria II (Bectin Dickenson). […] Lysates were quantified for total protein using the Nanodrop, and verification was performed by BCA (Pierce). Lysates were loaded onto SDS-PAGE and transferred to PVDF (Millipore). Membranes were blotted for phospho-STAT3 (Y705) and beta-actin.
Cardiac glycosides were administered at endogenous levels (sub- and nano Molar) or therapeutic levels (nano Molar) to modulate transcription factor activity and gene expression. Alteration of STAT1 activity has been observed in Alzheimer's disease and susceptibility to lethal intracellular pathogenic diseases (Kitamura et al, 1997; Chapgier et al, 2009). Aberrant STAT2 levels have been linked to inflammatory disease such as Crohn's disease (CD), ulcerative colitis (UC) and inflammatory bowel disease (IBD), and cancers such as colorectal and skin cancers (Gamero et al, 2010). STAT3 signaling is a critical component of Th17-dependent autoimmune processes. […] Mice with targeted deletion of Stat3 in T cells are resistant to experimental autoimmune encephalomyelitis, which is a multiple sclerosis (MS) model. […] STAT phosphorylation can be assessed by phospho-flow cytometric analysis, Western immunoblot and ELISA of circulating PBMCs or of biopsied tissues.
On the technique in general: In flow cytometry, cells or beads pass a laser one at a time.

The test system of the next data set is regulatory T cells. Briefly: FACS of regulatory T cells in splenocytes of treated CIA mice. It counts as in vivo, DBA1/J mice. The note with it: 0.3 mg/kg treated CIA mice, 4 mice per group. On the procedure: FIG. 25. […] (A) Representative data from mixed lymphocyte studies. […] B cells were washed, replated in complete RPMI supplemented with BAFF (1 ng/mL), anti-CD3 antibody (4 μg/mL) and were added to 5×10^5 naïve CD4^+ T cells purified by MACS. Cells were incubated for 72 hr prior to harvest. IL-6, IL-10, TGFβ and IL-17 cytokine levels were measured by ELISA (R&D Systems, Peprotech, and eBiosciences). Data represent the average absorbance (A450) of triplicates and error bars represent the SEM. […] Cells were fixed in 4% paraformaldehyde for 15 minutes, washed twice with PBS and blocked with FACS buffer. Cells were stained for regulatory T cells using anti-TCRβ, anti-CD4, anti-CD25 and anti-FoxP3 antibodies (Cell Signaling Technologies, R&D Systems, AbCam). FACS was performed on the FACS Aria (Becton-Dickenson). Data represent the average population in 500,000 cells from 4 mice per treatment group. Error bars represent the SEM.
It is known that B cells can regulate T cell differentiation and in many states of autoimmune disease, an imbalance of Th1, Th2, and Th17 T cell populations exist. […] We performed studies to determine the regulatory effector function of B cells pre-treated with cardiac glycoside on T cell differentiation. […]

For data set [2] the following is noted: oral; cited from earlier work.

With `C[C@H]1O[C@@H](O[C@H]2[C@@H](O)C[C@H](O[C@H]3[C@@H](O)C[C@H](O[C@H]4CC[C@@]5(C)[C@H](CC[C@@H]6[C@@H]5CC[C@]5(C)[C@@H](C7=CC(=O)OC7)CC[C@]65O)C4)O[C@@H]3C)O[C@@H]2C)C[C@H](O)[C@@H]1O` [Digitoxin, digitoxin], in data set [1], the “immune cell infiltrate into the joints (hematoxylin and eosin)” value was “decreased amounts of immune cell infiltrate”. Besides, the “Serum cytokine levels (TNF, IL-6 and IL-1beta) versus vehicle” value in the data set on TNF, IL-6 and IL-1beta is “similar”. Besides, the “STAT3 phosphorylation (Y705)” value in the data set with phospho-STAT3 (Y705) is reported as “stimulate STAT3 phosphorylation”. In addition, the “induction of regulatory T cells in vivo” value in the data set with regulatory T cells is “induce regulatory T cells”. The oral bioavailability in data set [2] is above 90%.
